Source: US20220073642A1, “METHODS OF USING SURUFATINIB IN TREATING ADVANCED PANCREATIC AND EXTRA-PANCREATIC NEUROENDOCRINE TUMORS” (HUTCHISON MEDIPHARMA LIMITED, priority 2020, published 2022)
“And” between values parts separate entries of the source, which are not always exact repeats. Equal values may be shown once.

How the values were obtained:
[1] = system: advanced, well-differentiated pancreatic neuroendocrine tumors; test: SANET-p Phase III study, efficacy (RECIST 1.1); type: in vivo, human; settings: for Odds ratio, Disease control rate / Odds ratio, Objective response rate: vs placebo
Description: (§1) The targeted population are progressive, locally advanced or distant metastatic, low- or intermediate grade (G1 or G2) pancreatic NETs patients. G1 is defined as <2 mitoses/10 high-power field [HPF] and/or <3% Ki-67 index; G2 is defined as 2-20/10 HPF and/or 3-20% Ki-67 index. If the mitotic ratio and Ki-67 index correspond to different grade, the higher grade should be used to assign classification. All patients must provide tumor samples for central pathology review to check as of whether the diagnostics and grade score comply with inclusion criteria. Patients must have radiological documentation of progression of disease within 12 months prior to randomization. Patients must have previously progressed no more than two types of systemic anti-tumor therapy, including long-acting somatostatin analogs (SSAs), interferon, PRRT (peptide receptor radionuclide therapy), mammalian target of rapamycin (mTOR) inhibitors or chemotherapy (all chemotherapies are deemed as a single therapy regardless of drug or time); patients who are unable or unwilling to receive such treatments are also eligible if all other criteria are met.
Approximately 195 patients will be randomly assigned (in 2:1 ratio) to the following treatment groups based on interactive web response system IWRS:
(§2) Surufatinib, 300 mg, once daily (QD), orally
(§3) Continuous administration (every 4 weeks as a treatment cycle).
(§4) According to the randomized result, the patients will receive continuous oral treatment, every 4-week treatment cycle until progression of disease occurs, intolerable toxicity or other protocol-specified end-of-treatment criteria is met.
(§5) In accordance with RECIST 1.1, the tumor should be assessed every 8 weeks (±3 days) within the first year and every 12 weeks (±3 days) after the patient has been treated for more than one year.
(§6) 1) Primary therapeutic endpoint: PFS (according to RECIST 1.1 criteria)
(§7) 2) Secondary therapeutic endpoint: Objective Response Rate of the tumor (ORR), Disease Control Rate (DCR), Duration of Response (DoR), Time to Response (TTR) and Overall Survival (OS) (according to RECIST 1.1 criteria)

[2] = system: advanced extra-pancreatic neuroendocrine tumors; test: SANET-ep Phase III study, efficacy (RECIST 1.1); type: in vivo, human
Description: (§8) This study is a randomized, double-blind, placebo-controlled, multi-center Phase III study to assess the efficacy and safety of Surufatinib in treating advanced extra-pancreatic neuroendocrine tumors.
The targeted population are progressive, locally advanced or distant metastatic extra-pancreatic NETs (including, but not limited to: lungs, thymus gland and gastrointestinal origins like stomach, duodenum, liver, jejunum, ileum, colon, caecum, vermiform appendix and rectum, and unknown origin) patients with no possibility of radical resection of tumor, and of pathologically with low or intermediate grade (G1 or G2). For Gastrointestinal neuroendocrine tumors (GI-NETs), G1 is defined as <2 mitoses/10 high-power field
as §1, with “[HPF]” for “The targeted population are progressive, locally advanced or distant metastatic, low- or intermediate grade (G1 or G2) pancreatic NETs patients. G1 is defined as <2 mitoses/10 high-power field [HPF]”, “index; for NETs originating from the lung and thymus gland, G1 is defined as <2 mitoses/10 HPF and no necrosis; G2 is defined as 2-10/10 HPF and/or foci of necrosis. NETs from origin other than GI-NET, lung and thymus, or from unknown origins should be graded according to the GI-NET grading criteria.” for “index.”
Approximately 273 patients will be randomly assigned (in 2:1 ratio) to the following treatment groups based on interactive web response system IWRS:
as §2, §3, §4, §5, §6, §7

[3] = SANET-ep Phase III study, safety and exposure (NCI CTCAE v4.03); type: in vivo, human; settings: N = 129
Protocol: as §8, §2, §3

NETs = test: Phase I dose escalation clinical study, extension stage (NCT02133157); type: in vivo, human; settings: 21 efficacy evaluable patients with NETs
Description: This multi-center, open-label, dose-escalation phase I study investigated the safety, pharmacokinetic characteristics, and preliminary anti-tumor activity of surufatinib in patients with advanced solid tumors. The primary objective was to determine the maximum tolerated dose (MTD), recommended phase II trial dose (RPTD), and the safety profile of Surufatinib when administered to patients with advanced malignant solid tumors. A secondary objective was to evaluate the pharmacokinetic profile of Surufatinib, and exploratory objectives included evaluating the ORR among patients given Surufatinib therapy and determining whether biomarkers for angiogenesis might reflect any clinical efficacy shown by Surufatinib. A modified Fibonacci 3+3 construct was used to design this dose escalation study and determine the MTD of Surufatinib.
In addition, similar efficacy trends have also been shown in the Phase Ib/II study of patients with NETs (Jianming Xu et al. Clin Cancer Res. 25(12):3486-3494). […] Therefore, further clinical investigation of Surufatinib is valuable.

advanced pancreatic NETs = test: phase 1 study of surufatinib in patients from the United States; type: in vivo, human
Protocol: Although this trial was conducted fully in a Chinese patient population, the results appear to be applicable to Western patients. Encouraging results have been reported from an ongoing phase 1 study of surufatinib in patients from the United States with heavily treated advanced pancreatic NETs (4 median prior lines of therapy), with an objective response rate of 25.0% (4/16: 3 confirmed partial response and 1 unconfirmed partial response). The safety profile observed in this Western patient population was similar to those observed in the SANET-p trial, as well as in other clinical studies of surufatinib in NETs patients.
As compared with other trials involving patients with extra-pancreatic NETs, the population enrolled in this study was heterogenous. In addition, only Chinese patients were enrolled in this study, which may limit the extrapolation of the results to other populations: however, historically no ethnic differences in the efficacy of antiangiogenic agents for NETs have been reported.

[4] = Solubility of surufatinib; type: physicochemical
Description: As used here, the term “surufatinib” (formerly named sulfatinib”)refers to N-(2-(dimethylamino)ethyl)-1-(3-(4-(2-methyl-1H-indol-5-yloxy)pyrimidin-2-ylamino)phenyl)methanesulfonamide or N-(2-(dimethylamino)ethyl)-1-(3-(4-(2-methyl-1H-indol-5-yloxy)pyrimidin-2-ylamino)phenyl)methanesulfonamide. Surufatinib is a small-molecule kinase inhibitor which mainly acts on VEGFRs-1, 2, 3, the FGFR1 and CSF1R. Surufatinib is a study drug formulated as an odorless, white or off-white powder in capsules, with strengths of 50 mg and 200 mg. […] Herein, “surufatinib” may be referred to as “drug,” “active agent,” “a therapeutically active agent,” or “API.”

[5] = SANET-p Phase III study, safety and exposure (NCI CTCAE v4.03); settings: N = 113
Description: SANET-p (NCT02589821) is a randomized, double-blind, placebo-controlled Phase III study evaluating the efficacy and safety of surufatinib compared to placebo in patients with progressive, advanced (unresectable local progression or distant metastasis), well-differentiated pancreatic neuroendocrine tumors.
Continuous administration (every 4 weeks as a treatment cycle). Surufatinib can be taken with or without food and should be taken as a single administration per day. It is recommended to take the drug at the same time every day. If the patient vomits after dosing surufatinib, there is no need to make up.
During the treatment, physician should closely monitor the patients and adjust dosage according to the safety and tolerability of individual patients, including dose interruption, dose reduction or permanently discontinue treatment. The dose adjustment should follow the guidance of interruption first and then dose reduction.

[6] = ITT set, 95% CI, listed as surufatinib
[7] = treatment-related AE, safety population
[8] = treatment-related AE, safety set

## Cc1cc2cc(Oc3ccnc(Nc4cccc(CS(=O)(=O)NCCN(C)C)c4)n3)ccc2[nH]1 [Surufatinib, N-(2-(dimethylamino)ethyl)-1-(3-((4-((2-methyl-1H-indol-5-yl)oxy)pyrimidin-2-yl)amino)phenyl)-methanesulfonamide]
[1]; BIIRC-assessed
  Duration of response: 15.2 months
  Time to response: 3.9 months
  Odds ratio, Disease control rate: 2.5
  Odds ratio, Objective response rate: 8.8
[1]; BIIRC-assessed, N = 104
  Best overall response: Non-complete response, non-progressive disease: 0 n
[1]; ITT set, N = 113
  PFS (BIIRC assessment), median: 13.9 month
[1]; ITT set, N = 113, 300 mg QD orally
  PFS (Investigator's assessment), median: 10.9 month
[1]; ITT set, 95% CI
  PFS (BIIRC assessment), HR (Surufatinib/Placebo): 0.339 (0.209, 0.549)
  PFS (Investigator's assessment), HR (Surufatinib/Placebo): 0.491 (0.319, 0.755)
[1]; [6]
  PFS (BIIRC assessment), HR (Surufatinib/Placebo): 0.34
  PFS (Investigator's assessment), HR (Surufatinib/Placebo): 0.49
[1]; Table 4, N = 15
  DoR, median: 15.2 month
  TTR, median: 3.9 month
[1]; interim ITT set, N = 104
  Disease control rate, BIIRC-assessed: 84.6%
  Disease control rate, investigator-assessed: 80.8%
  Objective response rate, BIIRC-assessed: 14.4%
  Objective response rate, investigator-assessed: 19.2%
[1]; investigator assessment
  median PFS longer than in the placebo cohort: 7.2 months
  reduction of the risk of disease progression/death vs placebo: 50.9% and 51%
[1]; investigator assessment, listed as surufatinib
  reduction of the risk of disease progression/death vs placebo: 51%
[1]; investigator-assessed
  Duration of response: 7.4 months
  Time to response: 3.8 months
  Odds ratio, Disease control rate: 2.1
  Odds ratio, Objective response rate: 12.4
[1]; investigator-assessed, N = 104
  Best overall response: Partial response: 20 n
[1]; investigator, 95% CI
  DCR, OR (odds ratio) vs placebo: 2.1 (0.9, 4.8)
  ORR, OR (odds ratio) vs placebo: 12.4 (1.8, 522.8)
[2]; BIIRC-assessed
  Duration of response: 5.6 months
  Time to response: 2.9 months
[2]; BIIRC-assessed, N = 126
  Disease control rate: 77.8%
  objective response rate: 7.9%
[2]; Investigator-assessed, N = 126
  Best overall response: Partial response: 13 n
  Disease control rate: 86.5%
  objective response rate: 10.3%
[2]; N = 129, 300 mg QD orally
  median progression-free survival as assessed by the investigators: 9.2 months
[2]; in vivo
  progression-free survival HR vs placebo, BIIRC-assessment: 0.66
  progression-free survival HR vs placebo, investigators: 0.33
  progression-free survival HR vs placebo, post-hoc adjudicated BIIRC results: 0.57
[2]; investigator-assessed
  Duration of response: 5.6 months
  Time to response: 3.7 months
[2]; investigators
  reduction of the risk of disease progression or death compared with placebo: 67%
[2]; post-hoc subgroup analysis
  HR for median progression-free survival, NETs of unknown or uncommon tumor origins: 0.50
[2]; sensitivity analysis
  median progression-free survival, BIIRC-assessment: 7.4 months
[2]; subgroup, 7.8% of patients
  median progression-free survival, patients previously treated with everolimus: 7.4 months
[3]
  Discontinuation due to proteinuria: 1.6%
  Discontinuation due to urine protein present: 2.3%
  hypertension resulting in dose interruption or reduction: 15.5%
  proteinuria resulting in dose interruption or reduction: 29.5%
  treatment discontinuation for adverse events: 14.7%
[3]; safety population
  Treatment-related adverse event, any grade: 97.7%
[3]; [7]
  ALT increased, ≥Grade 3: 3.1%
  AST increased, ≥Grade 3: 3.9%
  Anemia, ≥Grade 3: 4.7%
  Hyperbilirubinemia, ≥Grade 3: 3.9%
  Hypertension, ≥Grade 3: 36.4%
  Protein urine present, ≥Grade 3: 3.9%
  Proteinuria, ≥Grade 3: 19.4%
NETs
  DCR: 85.7%
  ORR: 38.1%
  not evaluable for response: 3 patients
  patients achieved PR: 8 patients
  patients achieved SD: 10 patients
Advanced pancreatic NETs; advanced pancreatic NETs, 2/15
  objective response rate: 13.3%
Advanced pancreatic NETs; advanced pancreatic NETs, 11/15
  Disease control rate: 73.3%
Advanced pancreatic NETs; heavily treated advanced pancreatic NETs, 4/16 (3 confirmed, 1 unconfirmed partial response)
  objective response rate: 25.0%
[4]; methyl alcohol or ethyl alcohol
  solubility in methyl alcohol or ethyl alcohol: slightly soluble
[4]; water
  solubility in water: insoluble
[5]
  on-treatment deaths attributed to adverse events: Two
[5]; [8]
  Arthralgia, ≥Grade 3: 0 n
  Back pain, ≥Grade 3: 0 n
  Bilirubin conjugated increased, ≥Grade 3: 0 n
  Blood creatinine increased, ≥Grade 3: 0 n
  Blood lactate dehydrogenase increased, ≥Grade 3: 0 n
  Blood thyroid stimulating hormone increased, ≥Grade 3: 0 n
  Decreased appetite, ≥Grade 3: 0 n
  Dizziness, ≥Grade 3: 0 n
  Fatigue, ≥Grade 3: 0 n
  Haemoglobin increased, ≥Grade 3: 0 n
  Headache, ≥Grade 3: 0 n
  Hyperbilirubinaemia, ≥Grade 3: 0 n
  Hypercholesterolaemia, ≥Grade 3: 0 n
  Hypoalbuminaemia, ≥Grade 3: 0 n
  Hypothyroidism, ≥Grade 3: 0 n
  Nausea, ≥Grade 3: 0 n
  Occult blood positive, ≥Grade 3: 0 n
